Results reported in US10202361B2, “Pyridazinones as herbicides” (E I DU PONT DE NEMOURS AND COMPANY, priority 2014, dated 2019).
Where two headings read alike, the source gives them in different places.

Experiments:
Assay type in all cases: in vivo
[1] = system: chickweed (common chickweed, Stellaria media); assay: Test C postemergence greenhouse herbicide test
Excerpt: At the same time, plants selected from these crop and weed species and also barley (winter barley, Hordeum vulgare), canarygrass (Phalaris minor), windgrass (Apera spica-venti), deadnettle (henbit deadnettle, Lamium amplexicaule), and chickweed (common chickweed, Stellaria media) were planted in pots containing Redi-Earth® planting medium (Scotts Company, 14111 Scottslawn Road, Marysville, Ohio 43041) comprising spaghnum peat moss, vermiculite, wetting agent and starter nutrients and treated with postemergence applications of test chemicals formulated in the same manner. Plants ranged in height from 2 to 18 cm (1- to 4-leaf stage) for postemergence treatments. Treated plants and controls were maintained in a greenhouse for 13 to 15 d, after which time all species were compared to controls and visually evaluated. Plant response ratings, summarized in Table C, are based on a scale of 0 to 100 where 0 is no effect and 100 is complete control. A dash (-) response means no test result.

[2] = system: barnyardgrass (Echinochloa crus-galli); assay: Test B flooded paddy test; conditions: Echinochloa crus-galli, 312 h; Flood, 125 g ai/ha; scale of 0 to 100, 0 is no effect, 100 is complete control; 13 to 15 d; read-out: Plant response rating, Barnyardgrass
Method in brief: (§1)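 Visual scores from 0 (no effect) to 100 (complete control) are relative to controls, assessed 13 to 15 d after treatment under greenhouse conditions. Treatment went into the paddy water of pots flooded 3 cm deep, with seedlings at the 2-leaf stage and flooding maintained.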

[3] = system: ducksalad (Heteranthera limosa); assay: Test B flooded paddy test; conditions: Heteranthera limosa, 312 h; Flood, 125 g ai/ha; scale of 0 to 100, 0 is no effect, 100 is complete control; 13 to 15 d; read-out: Plant response rating, Ducksalad
Method in brief: as §1

rice (Oryza sativa) = assay: Test B flooded paddy test; conditions: Oryza sativa, 312 h; Flood, 125 g ai/ha; scale of 0 to 100, 0 is no effect, 100 is complete control; 13 to 15 d; read-out: Plant response rating, Rice
Method in brief: as §1

[4] = system: sedge, umbrella (small-flower umbrella sedge, Cyperus difformis); assay: Test B flooded paddy test; conditions: Cyperus difformis, 312 h; Flood, 125 g ai/ha; scale of 0 to 100, 0 is no effect, 100 is complete control; 13 to 15 d; read-out: Plant response rating, Sedge, Umbrella
Method in brief: as §1

[5] = system: pigweed (Amaranthus retroflexus); assay: Test C pre-/postemergence greenhouse herbicide test; conditions: Amaranthus retroflexus, Pigweed, read-out: Plant response rating; for pest or weed control at 31 g/ha: 31 g ai/ha; for pest or weed control at 62 g/ha: 62 g ai/ha; for pest or weed control at 125 g/ha: 125 g ai/ha; for pest or weed control at 250 g/ha: 250 g ai/ha
Method in brief: (§2)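 Plant response is scored on a 0–100 scale, where 100 means complete control, by visual comparison with controls 13 to 15 d after greenhouse treatment. Applications are made pre- and postemergence using a surfactant-containing, non-phytotoxic solvent formulation.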

[6] = system: johnsongrass (Sorghum halepense); assay: as above; conditions: Sorghum halepense, Johnsongrass, read-out: Plant response rating; for pest or weed control at 31 g/ha: 31 g ai/ha; for pest or weed control at 62 g/ha: 62 g ai/ha; for pest or weed control at 125 g/ha: 125 g ai/ha; for pest or weed control at 250 g/ha: 250 g ai/ha
Method in brief: as §2

[7] = system: wheat (winter wheat, Triticum aestivum); assay: as above; conditions: Triticum aestivum, Wheat, read-out: Plant response rating; for plant injury at 62 g/ha: 62 g ai/ha; for plant injury at 125 g/ha: 125 g ai/ha; for plant injury at 250 g/ha: 250 g ai/ha
Method in brief: as §2

[8] = system: ragweed (common ragweed, Ambrosia elatior); assay: as above; conditions: Ambrosia artemisiifolia, Ragweed, read-out: Plant response rating; for pest or weed control at 31 g/ha: 31 g ai/ha; for pest or weed control at 62 g/ha: 62 g ai/ha; for pest or weed control at 125 g/ha: 125 g ai/ha; for pest or weed control at 250 g/ha: 250 g ai/ha
Method in brief: as §2

[9] = system: crabgrass, Large (large crabgrass, Digitaria sanguinalis); assay: as above; conditions: Digitaria sanguinalis, Crabgrass, Large, read-out: Plant response rating; for pest or weed control at 31 g/ha: 31 g ai/ha; for pest or weed control at 62 g/ha: 62 g ai/ha; for pest or weed control at 125 g/ha: 125 g ai/ha; for pest or weed control at 250 g/ha: 250 g ai/ha
Method in brief: as §2

[10] = system: oilseed rape (Brassica napus); assay: as above; conditions: Oilseed Rape
Method in brief: as §2

Compound `Cc1cc(=O)n(-c2ccc(F)cc2)nc1Cc1ccnc(C(F)(F)F)c1` [Compound 1, 2-(4-fluorophenyl)-5-methyl-6-[[2-(trifluoromethyl)-4-pyridinyl]methyl]-3(2H)-pyridazinone] has a Plant response rating ([1]; 31 g ai/ha) of 40, a Plant response rating ([1]; 62 g ai/ha) of 45 and a Plant response rating ([1]; 125 g ai/ha) of 60. It also gave a Plant response rating ([1]; 250 g ai/ha) of 90, a pest or weed control at 125 g/ha [2] of 10% and a pest or weed control at 125 g/ha [3] of 60%. For the same compound, the plant injury at 125 g/ha (rice (Oryza sativa)) was 20%, the pest or weed control at 125 g/ha [4] was 80% and the pest or weed control at 31 g/ha ([5]; post-emergence, Postemergence) was 35%. The pest or weed control at 62 g/ha ([5]; post-emergence, Postemergence) was 55%, the pest or weed control at 125 g/ha ([5]; post-emergence, Postemergence) was 65% and the pest or weed control at 250 g/ha ([5]; post-emergence, Postemergence) was 85%. It also gave a pest or weed control at 31 g/ha ([5]; pre-emergence, Preemergence) of 100%, a pest or weed control at 62 g/ha ([5]; pre-emergence, Preemergence) of 100% and a pest or weed control at 125 g/ha ([5]; pre-emergence, Preemergence) of 100%. The pest or weed control at 250 g/ha ([5]; pre-emergence, Preemergence) was 100%, the pest or weed control at 31 g/ha ([6]; post-emergence, Postemergence) was 5% and the pest or weed control at 62 g/ha ([6]; post-emergence, Postemergence) was 5%. It also gave a pest or weed control at 125 g/ha ([6]; post-emergence, Postemergence) of 5%, a pest or weed control at 250 g/ha ([6]; post-emergence, Postemergence) of 5% and a pest or weed control at 31 g/ha ([6]; pre-emergence, Preemergence) of 35%. For the same compound, the pest or weed control at 62 g/ha ([6]; pre-emergence, Preemergence) was 60%, the pest or weed control at 125 g/ha ([6]; pre-emergence, Preemergence) was 85% and the pest or weed control at 250 g/ha ([6]; pre-emergence, Preemergence) was 100%. For the same compound, the plant injury at 31 g/ha ([7]; post-emergence, Postemergence, 31 g ai/ha) was 0%, the plant injury at 62 g/ha ([7]; post-emergence, Postemergence) was 5% and the plant injury at 125 g/ha ([7]; post-emergence, Postemergence) was 5%. The plant injury at 250 g/ha ([7]; post-emergence, Postemergence) was 5%, the plant injury at 62 g/ha ([7]; pre-emergence, Preemergence) was 5% and the plant injury at 125 g/ha ([7]; pre-emergence, Preemergence) was 15%. The plant injury at 250 g/ha ([7]; pre-emergence, Preemergence) was 70%, the pest or weed control at 31 g/ha ([8]; post-emergence, Postemergence) was 30% and the pest or weed control at 62 g/ha ([8]; post-emergence, Postemergence) was 50%. For the same compound, the pest or weed control at 125 g/ha ([8]; post-emergence, Postemergence) was 50%, the pest or weed control at 250 g/ha ([8]; post-emergence, Postemergence) was 60% and the pest or weed control at 31 g/ha ([8]; pre-emergence, Preemergence) was 25%. It also gave a pest or weed control at 62 g/ha ([8]; pre-emergence, Preemergence) of 35%, a pest or weed control at 125 g/ha ([8]; pre-emergence, Preemergence) of 70% and a pest or weed control at 250 g/ha ([8]; pre-emergence, Preemergence) of 100%. It also gave a pest or weed control at 31 g/ha ([9]; post-emergence, Postemergence) of 5%, a pest or weed control at 62 g/ha ([9]; post-emergence, Postemergence) of 5% and a pest or weed control at 125 g/ha ([9]; post-emergence, Postemergence) of 10%. The pest or weed control at 250 g/ha ([9]; post-emergence, Postemergence) was 20%, the pest or weed control at 31 g/ha ([9]; pre-emergence, Preemergence) was 100% and the pest or weed control at 62 g/ha ([9]; pre-emergence, Preemergence) was 100%. It also gave a pest or weed control at 125 g/ha ([9]; pre-emergence, Preemergence) of 100%, a pest or weed control at 250 g/ha ([9]; pre-emergence, Preemergence) of 100% and a Plant response rating ([10]; Postemergence, 31 g ai/ha) of 5. It also gave a Plant response rating ([10]; Postemergence, 62 g ai/ha) of 5, a Plant response rating ([10]; Postemergence, 125 g ai/ha) of 10 and a Plant response rating ([10]; Postemergence, 250 g ai/ha) of 30. It also gave a Plant response rating ([10]; Preemergence, 31 g ai/ha) of 30, a Plant response rating ([10]; Preemergence, 62 g ai/ha) of 80 and a Plant response rating ([10]; Preemergence, 125 g ai/ha) of 100. For the same compound, the Plant response rating ([10]; Preemergence, 250 g ai/ha) was 100.
